Measured values taken from ChEMBL document CHEMBL4680354, “Design, synthesis and biological evaluation of novel indanone containing spiroisoxazoline derivatives with selective COX-2 inhibition as anticancer agents” (Bioorg Med Chem, 2021).

Key:
[1] = target: T1, Prostaglandin G/H synthase 1 (Ovis aries, UniProt P05979); assay: Inhibition of Ovine COX-1 by chemiluminescent enzyme method
T1 sequence (P05979 whole entry): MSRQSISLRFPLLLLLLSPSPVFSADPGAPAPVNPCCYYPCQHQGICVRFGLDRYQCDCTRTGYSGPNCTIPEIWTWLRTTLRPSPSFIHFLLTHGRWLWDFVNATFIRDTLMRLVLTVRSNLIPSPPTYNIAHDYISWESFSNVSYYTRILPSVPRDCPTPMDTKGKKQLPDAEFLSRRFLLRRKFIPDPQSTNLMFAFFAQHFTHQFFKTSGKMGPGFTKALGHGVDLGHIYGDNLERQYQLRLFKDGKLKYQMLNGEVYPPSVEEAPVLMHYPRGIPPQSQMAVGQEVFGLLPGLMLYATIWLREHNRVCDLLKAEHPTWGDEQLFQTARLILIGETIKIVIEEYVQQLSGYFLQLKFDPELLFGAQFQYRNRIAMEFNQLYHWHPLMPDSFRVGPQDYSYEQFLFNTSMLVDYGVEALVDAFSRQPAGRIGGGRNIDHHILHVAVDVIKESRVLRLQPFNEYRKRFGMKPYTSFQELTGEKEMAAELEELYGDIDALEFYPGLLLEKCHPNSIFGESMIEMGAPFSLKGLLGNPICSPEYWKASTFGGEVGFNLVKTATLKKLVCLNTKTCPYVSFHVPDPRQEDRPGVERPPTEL

[2] = tested on: MCF7; assay: Antiproliferative activity against human MCF-7 cells assessed as reduction in cell viability incubated for 72 hrs by MTT assay; type: functional, cell-based; conditions: MCF7, 72 h
[3] = tested on: HT-29; assay: Antiproliferative activity against human HT-29 cells assessed as reduction in cell viability incubated for 72 hrs by MTT assay; type: functional, cell-based; conditions: HT-29, 72 h
[4] = tested on: MCF-10A; assay: Antiproliferative activity against human MCF10A cells assessed as reduction in cell viability incubated for 72 hrs by MTT assay; type: functional, cell-based
[5] = tested on: HEK293; assay: Cytotoxicity against human HEK293 cells assessed as reduction in cell viability incubated for 72 hrs by MTT assay; type: cell-based; conditions: HEK293, 72 h
[6] = tested on: MCF7; assay: Antiproliferative activity against human cells MCF-7 assessed as reduction in cell viability incubated for 48 hrs by MTT assay; type: functional, cell-based; conditions: MCF7, 48 h
[7] = tested on: MCF7; assay: Antiproliferative activity against human cells MCF-7 assessed as reduction in cell viability incubated for 24 hrs by MTT assay; type: functional, cell-based; conditions: MCF7, 24 h
[8] = tested on: MCF7; assay: Induction of apoptosis in human MCF7 cells assessed as viable cells at IC50 measured after 72 hrs by Annexin-V/propidium iodide staining-based flow cytometric analysis (reference value: […]); type: functional
[9] = tested on: MCF7; assay: Induction of apoptosis in human MCF7 cells assessed as early apoptotic cells at IC50 measured after 72 hrs by Annexin-V/propidium iodide staining-based flow cytometric analysis (reference value: 1.1%); type: functional
[10] = tested on: MCF7; assay: Induction of apoptosis in human MCF7 cells assessed as late apoptotic cells at IC50 measured after 72 hrs by Annexin-V/propidium iodide staining-based flow cytometric analysis (reference value: 92.7%); type: functional
[11] = tested on: MCF7; assay: Induction of apoptosis in human MCF7 cells assessed as necrotic cells at IC50 measured after 72 hrs by Annexin-V/propidium iodide staining-based flow cytometric analysis (reference value: 4.7%); type: functional

| SMILES | IC50 [1] | IC50 [2] | IC50 [3] | IC50 [6] | IC50 [7] | IC50 [4] | IC50 [5] | Activity [8] | Activity [9] | Activity [10] | Activity [11] |
| --- | --- | --- | --- | --- | --- | --- | --- | --- | --- | --- | --- |
| COc1ccc(C2=NOC3(Cc4ccccc4C3=O)C2c2ccc(S(C)(=O)=O)cc2)cc1 (configuration not stated) | 9.89 µM | 0.65 µM | 68.5 µM | > 100 µM |  | > 100 µM | > 100 µM |  |  |  |  |
| CS(=O)(=O)c1ccc(C2C(c3ccccc3)=NOC23Cc2ccccc2C3=O)cc1 (configuration not stated) | 11.4 µM | 8.53 µM | 239 µM | 17.1 µM |  | > 100 µM | > 100 µM |  |  |  |  |
| CS(=O)(=O)c1ccc(C2C(c3ccc(F)cc3)=NOC23Cc2ccccc2C3=O)cc1 (configuration not stated) | 10.8 µM | 0.14 µM | 55.4 µM | 16.5 µM |  | 3.21 µM | 0.64 µM |  |  |  |  |
| COc1cc(C2=NOC3(Cc4ccccc4C3=O)C2c2ccc(S(C)(=O)=O)cc2)cc(OC)c1OC (configuration not stated) | 12.8 µM | 0.87 µM | 112 µM | 3.96 µM | 17.6 µM | > 100 µM | 70.8 µM |  |  |  |  |
| CS(=O)(=O)c1ccc(C2C(c3ccc(Cl)cc3)=NOC23Cc2ccccc2C3=O)cc1 (configuration not stated) | 9.43 µM | 1.2 µM | 99.3 µM | 64.8 µM |  | 22.5 µM | 37.7 µM |  |  |  |  |
| Cc1ccc(C2=NOC3(Cc4ccccc4C3=O)C2c2ccc(S(C)(=O)=O)cc2)cc1 (configuration not stated) | 10.1 µM | 0.17 µM | 73 µM | 25.7 µM |  | > 100 µM | 82.4 µM |  |  |  |  |

Molecules with a lower IC50 [3], results first:

| IC50 [1] | IC50 [2] | IC50 [3] | IC50 [6] | IC50 [7] | SMILES | IC50 [4] | IC50 [5] | Activity [8] | Activity [9] | Activity [10] | Activity [11] |
| --- | --- | --- | --- | --- | --- | --- | --- | --- | --- | --- | --- |
| 12.1 µM | 0.03 µM | 43.7 µM | 1.03 µM | 10.5 µM | COc1ccc(C2=NOC3(Cc4ccccc4C3=O)C2c2ccc(S(C)(=O)=O)cc2)cc1OC (configuration not stated) | > 100 µM | > 100 µM | 2.5% | 37.2% | 44.7% | 15.6% |
|  |  | 18 µM | 16 µM | 19.8 µM | Cc1ccc(-c2cc(C(F)(F)F)nn2-c2ccc(S(N)(=O)=O)cc2)cc1 [CELECOXIB] |  |  |  |  |  |  |
|  |  | 3.18 µM |  | 0.23 µM | CC[C@]1(O)C[C@@H]2CN(CCc3c([nH]c4ccccc34)[C@@](C(=O)OC)(c3cc4c(cc3OC)N(C)[C@H]3[C@@](O)(C(=O)OC)[C@H](OC(C)=O)[C@]5(CC)C=CCN6CC[C@]43[C@@H]65)C2)C1 [VINBLASTINE] |  |  |  |  |  |  |
|  | 0.89 µM | 1.74 µM |  | 0.92 µM | CC[C@]1(O)C[C@H]2CN(CCc3c([nH]c4ccccc34)[C@@](C(=O)OC)(c3cc4c(cc3OC)N(C=O)[C@H]3[C@@](O)(C(=O)OC)[C@H](OC(C)=O)[C@]5(CC)C=CCN6CC[C@]43[C@@H]65)C2)C1 [VINCRISTINE] |  |  |  |  |  |  |
|  |  | 1.57 µM |  |  | COc1cccc2c1C(=O)c1c(O)c3c(c(O)c1C2=O)C[C@@](O)(C(=O)CO)C[C@@H]3O[C@H]1C[C@H](N)[C@H](O)[C@H](C)O1 [DOXORUBICIN] |  |  |  |  |  |  |
